Key:
[1] = Haemodynamic profile in anaesthetized rats; format: in vivo, rat; set-up: Dhr^20 (i.v. dose which reduces heart rate by ca. 20%) / Dhr^20 (dose which reduces heart rate by ca. 20%): unit not given here
Description: The effect of compounds of the invention on heart rate, systolic left ventricular pressure, left ventricular dp/dt max and mean arterial blood pressure was investigated so as to obtain information on the anti-anginal potential of these compounds, by reducing the oxygen demand of the ischaemic heart.
*Dhr^20 = i.v. dose which reduces heart rate by ca. 20%
**LVP = systolic left ventricular pressure
***BP = mean arterial blood pressure
^a = i.d. administration

coronary spasm = test: Vasopressin test in anaesthetized rats (coronary spasm, ST-segment elevation in the ECG); format: in vivo, rat; conditions: 0.6 g/kg i.d., vasopressin (Lysopressin 1 I.U./kg) i.v.
Experimental: Vasopressin (Lysopressin: 1 I.U./kg) was administered intravenously in order to provoke coronary spasm (ST-segment elevation in the ECG).
The ability of test compounds to reduce coronary spasm is taken as a measure of their anti-anginal potential in spasm-induced angina pectoris. (Ref. Drug. Res. 33(11), 8,1117-1121 (1983)).

[2] = i.v. at Dhr^20, anaesthetized rat

SMILES | % effect of Dhr^20 on BP (mean arterial blood pressure) [1, 2] | % effect of Dhr^20 on LVP (systolic left ventricular pressure) [1, 2] | % effect of Dhr^20 on dp/dtmax (left ventricular dp/dt max) [1, 2] [%] | Dhr^20 (i.v. dose which reduces heart rate by ca. 20%) ([1]; i.v., anaesthetized rat) | i.v. duration of action on heart rate (rat) ([1]; i.v., anaesthetized rat) [min] | % effect of Dhr^20 on BP (mean arterial blood pressure) ([1]; rat, in vivo) [%] | Dhr^20 (dose which reduces heart rate by ca. 20%) ([1]; rat, in vivo) | duration of action on heart rate (rat) ([1]; rat, in vivo) [min] | % effect of Dhr^20 on BP (mean arterial blood pressure) ([1]; rat, in vivo, iv) [%] | % effect of Dhr^20 on LVP (systolic left ventricular pressure) ([1]; rat, in vivo, iv) [%] | Dhr^20 (i.v. dose which reduces heart rate by ca. 20%) ([1]; rat, in vivo, iv) | i.v. duration of action on heart rate (rat) ([1]; rat, in vivo, iv) [min] | active against coronary spasm (coronary spasm)
COc1ccc(CCN(C)CCCN(C(=O)CCc2ccccc2)c2ccc(OC)c(OC)c2)cc1OC [Example E15, (N-[5,4-Dimethoxyphenyl]-N-3-[N'-2-(3,4-dimethoxyphenyl)-ethyl-N'-methylamino]-propyl)-(3-phenyl)propanoic acid amide] | -8% | -7% | -7 | 1.6 | 10 |  |  |  |  |  |  |  | 
COc1ccc(CCN(C)CCCN(c2ccc(OC)c(OC)c2)c2ncc([N+](=O)[O-])cc2[N+](=O)[O-])cc1OC [Example E44] | -10% | -6% | -8 | 3.2 | 10 |  |  |  |  |  |  |  | 
CCCCC(=O)N(CCCN(C)CCc1ccc(OC)c(OC)c1)c1ccc(OC)c(OC)c1 [Example E12, (N-[3,4-Dimethoxyphenyl]-N-3-[N'-2-(3,4-dimethoxyphenyl)-ethyl-N'-methylamino]-propyl)-pentanoic acid amide] | -11% | -6% | -6 | 1.6 | 10 |  |  |  |  |  |  |  | 
COc1ccc(CCN(C)CCCN(Cc2ccccc2)c2ccc(OC)c(OC)c2)cc1OC [Example E4, (N-[3,4-Dimethoxyphenyl]-N-3-[N'-2-(3,4-dimethoxyphenyl)-ethyl-N'-methylamino]-propyl)-benzylamine] | -6% | -3% | -12 | 3.2 | 10 |  |  |  |  |  |  |  | 
COc1ccc(CCN(C)CCN(C(=O)NC(C)c2ccccc2)c2ccc(OC)c(OC)c2)cc1OC (centres unmarked) [Example E32] | -13% | -7% | -3 | 3.2 | 10 |  |  |  |  |  |  |  | 
CCCCCN(CCCN(C)CCc1ccc(OC)c(OC)c1)c1ccc(OC)c(OC)c1 [Example E34, (N-[3,4-Dimethoxyphenyl]-N-3-[N'-2-(3,4-dimethoxyphenyl)-ethyl-N'-methylamino]-propyl)-n-pentylamine] | -9% | -9% | -10 | 1.6 | 5 to 10 |  |  |  |  |  |  |  | 
CCCNC(=O)N(CCCN(C)CCc1ccc(OC)c(OC)c1)c1ccc(OC)c(OC)c1 [Example E27, (N-[3,4-Dimethoxyphenyl]-N-3-[N'-2-(3,4-dimethoxyphenyl)-ethyl-N'-methylamino]-propyl)-N"-n-propyl-urea] | -4% | -2% | -1 | 6.4 | 5 to 10 |  |  |  |  |  |  |  | 
COc1ccc(CCN(C)CCCN(C(=O)Oc2ccccc2)c2ccc(OC)c(OC)c2)cc1OC [Example E25, (N-[3,4-Dimethoxyphenyl]-N-3-[N'-2-(3,4-dimethoxyphenyl)-ethyl-N'-methylamino]-propyl)-phenyl-urethane] | -14% | -10% | -2 | 0.8 | 10 |  |  |  |  |  |  |  | 
COc1ccc(CCN(C)CCCN(C(=O)NCc2ccccc2)c2ccc(OC)c(OC)c2)cc1OC [Example E30, (N-[3,4-Dimethoxyphenyl]-N-3-[N'-2-(3,4-dimethoxyphenyl)-ethyl-N'-methylamino]-propyl)-N"-benzylurea] | -15% | -10% | -20 | 1.6 | 10 |  |  |  |  |  |  |  | 
CCCCOC(=O)N(CCCN(C)CCc1ccc(OC)c(OC)c1)c1ccc(OC)c(OC)c1 [Example E24, (N-[3,4-Dimethoxyphenyl]-N-3-[N'-2-(3,4-dimethoxyphenyl)-ethyl-N'methylamino]-propyl)-n-butyl-urethane] | -15% | -13% | -8 | 3.2 | 10 |  |  |  |  |  |  |  | 
COc1ccc(CCN(C)CCCN(Cc2ccc([N+](=O)[O-])cc2)c2ccc(OC)c(OC)c2)cc1OC [Example E6, (N-[3,4-Dimethoxyphenyl]-N-3-[N'-2-(3,4-dimethoxyphenyl)-ethyl-N'-methylamino]-propyl)-(4-nitro)-benzylamine] | +1% | +5% | -5 | 0.4 | 60 |  |  |  |  |  |  |  | 
COc1ccc(CCN(C)CCCN(C(=O)c2ccc([N+](=O)[O-])cc2)c2ccc(OC)c(OC)c2)cc1OC [Example E50, (N-[3,4-Dimethoxyphenyl]-N-3-[N'-2-(3,4-dimethoxyphenyl)-ethyl-N'-methyl-amino]-propyl)-4-nitrobenzamide] |  |  |  |  |  | -6 | 16 | > 90 | -1 | -1 | 1.6 | 10 | 
COc1ccc(CCN(C)CCCN(Cc2ccccc2[N+](=O)[O-])c2ccc(OC)c(OC)c2)cc1OC [Example E1] | 0% | -2% | -3 | 1.6 | 10 |  |  |  |  |  |  |  | active
